Experiments:
Type in all cases: biochemical
PgpB^Ec = target: T1, PgpB^Ec (Escherichia coli, UniProt P0A924); test: native mass spectrometry, real-time reaction monitoring
T1 construct: expressed and purified from E. coli membranes, LDAO micelles; monomer; tag details not given (PgpB-his plasmid used in cells)
T1 sequence (P0A924 2-254): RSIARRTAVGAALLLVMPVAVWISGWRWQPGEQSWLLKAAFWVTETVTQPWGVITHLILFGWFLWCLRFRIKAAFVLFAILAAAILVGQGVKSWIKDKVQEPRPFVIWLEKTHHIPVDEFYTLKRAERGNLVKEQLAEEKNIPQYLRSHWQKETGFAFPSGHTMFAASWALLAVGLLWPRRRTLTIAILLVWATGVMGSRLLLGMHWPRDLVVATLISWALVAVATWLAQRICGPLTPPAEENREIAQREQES

UppP = target: T2, UppP (Escherichia coli, UniProt P60932); test: as above
T2 construct: expressed and purified from E. coli membranes, LDAO micelles, delipidated for activity
T2 sequence (P60932 1-273): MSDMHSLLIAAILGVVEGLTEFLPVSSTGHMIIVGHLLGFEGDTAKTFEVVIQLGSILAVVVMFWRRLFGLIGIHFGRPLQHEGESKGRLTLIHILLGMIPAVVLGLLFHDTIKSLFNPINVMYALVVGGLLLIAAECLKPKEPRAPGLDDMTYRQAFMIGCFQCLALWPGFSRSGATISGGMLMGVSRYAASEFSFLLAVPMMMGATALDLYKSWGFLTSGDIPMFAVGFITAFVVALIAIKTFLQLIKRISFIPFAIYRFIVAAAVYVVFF

YbjG = target: T3, YbjG (Escherichia coli, UniProt P75806); test: thin-layer chromatography phosphatase assay; details: unaffected by EDTA or CaCl2
T3 construct: construct details only in supplement
T3 sequence (P75806 1-198): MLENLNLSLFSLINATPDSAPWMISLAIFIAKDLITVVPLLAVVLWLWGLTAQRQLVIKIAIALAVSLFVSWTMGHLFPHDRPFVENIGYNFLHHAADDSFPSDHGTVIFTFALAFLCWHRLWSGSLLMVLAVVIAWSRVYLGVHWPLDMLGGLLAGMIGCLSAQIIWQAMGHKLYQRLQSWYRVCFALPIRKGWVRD

PgpB^Bs = target: T4, PgpB^Bs (Bacillus subtilis, UniProt O34349); test: native mass spectrometry, real-time reaction monitoring
T4 construct: expressed in E. coli, purified, LDAO micelles; monomer; tag details not given
T4 sequence (O34349 1-203): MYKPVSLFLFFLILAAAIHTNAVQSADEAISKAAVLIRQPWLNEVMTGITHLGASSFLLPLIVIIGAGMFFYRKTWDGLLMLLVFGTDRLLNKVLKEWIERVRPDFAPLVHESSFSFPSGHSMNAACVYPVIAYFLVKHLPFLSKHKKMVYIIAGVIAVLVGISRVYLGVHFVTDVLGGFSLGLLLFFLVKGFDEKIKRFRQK

[1] = within 1 min, only enzyme-product complexes seen

CCCCCCCC/C=C\CCCCCCCC(=O)OC[C@H](COP(=O)(O)O)OC(=O)CCCCCCC/C=C\CCCCCCCC [DGP, 1,2-dioleoylglycerol monophosphate]
native mass spectrometry, real-time reaction monitoring (PgpB^Ec; product formed in situ from DGPP, ternary complex with DGPP): ternary complex formed by PgpB^Ec with the substrate DGPP and the monophosphorylated product DGP

CC(C)=CCC/C(C)=C/CC/C(C)=C/CC/C(C)=C\CC/C(C)=C\CC/C(C)=C\CC/C(C)=C\CC/C(C)=C\CC/C(C)=C\CC/C(C)=C\CC/C(C)=C\COP(=O)(O)O [C55-P]
native mass spectrometry, real-time reaction monitoring (UppP; product formed in situ from C55-PP): only the C55-P product was observed in complex with the protein

CC(C)=CCC/C(C)=C/CC/C(C)=C/CC/C(C)=C/CC/C(C)=C/CC/C(C)=C/CC/C(C)=C/CC/C(C)=C/CC/C(C)=C/CC/C(C)=C/CC/C(C)=C/COP(=O)(O)OP(=O)(O)O [C55-PP]
thin-layer chromatography phosphatase assay (YbjG): the activity of YbjG against C55-PP is unaffected by EDTA or CaCl2
native mass spectrometry, real-time reaction monitoring (PgpB^Bs; [1]): We next examined the activity of PgpB of B. subtilis (PgpB^Bs) toward DGPP and C55-PP
native mass spectrometry, real-time reaction monitoring (PgpB^Ec; 3.5 uM protein, 10 uM C55-PP, slowly processed): we observe intense binding of C55-PP molecules to the enzyme

CCCCCCCC/C=C\CCCCCCCC(=O)OC[C@H](COP(=O)(O)OP(=O)(O)O)OC(=O)CCCCCCC/C=C\CCCCCCCC [DGPP, 1,2-dioleoylglycerol diphosphate]
native mass spectrometry, real-time reaction monitoring (UppP; poorly processed substrate): The resultant spectra are dominated by peaks assigned to the bound substrate.
native mass spectrometry, real-time reaction monitoring (PgpB^Bs; [1]): peaks assigned to enzyme–product complexes with no residual substrate
native mass spectrometry, real-time reaction monitoring (PgpB^Ec; 3.5 uM protein, 10 uM DGPP, stoichiometries 1:1 to 1:4, activity independent of divalent cations): DGPP incubated with PgpB^Ec exhibited intense peaks corresponding to the enzyme–substrate and enzyme–product complexes

CC(C)=CCC/C(C)=C/CC/C(C)=C/COP(=O)(O)OP(=O)(O)O [C15-PP]
native mass spectrometry, real-time reaction monitoring (UppP; 3.5 uM delipidated protein, 50 uM C15-PP): peaks corresponding to ligand-free UppP and multiple enzyme–substrate complexes (UppP)(C15-PP)n

CCCCCCCC/C=C\CCCCCCCC(=O)OC[C@@H](O)COP(=O)(O)O [LPA]
native mass spectrometry, real-time reaction monitoring (PgpB^Bs; 3.5 uM protein with 50 uM LPA, 5 uM with 20 uM (Figure 2C)): The resulting spectra exhibited a progressive loss of protein-bound LPA as a function of time

Reference: publication PMC10941186, “Real-Time Biosynthetic Reaction Monitoring Informs the Mechanism of Action of Antibiotics” (Journal of the American Chemical Society, 2024)
